Test results reported in patent US12398154B2, “Azaquinazoline pan-KRas inhibitors” (Mirati Therapeutics, Inc., priority 2020, dated 2025).

Assays:
pERK in MKN1 cells = test: Inhibition of KRas phosphorylation of ERK (Cisbio HTRF pERK assay); details: Homo sapiens, MKN-1, 3 h, read-out: Inhibition (HTRF IC50) of KRas-mediated Phosphorylation of ERK, MKN1
[1] = test system: phospho-ERK in NCI-H460 (Q61H) cells; test: Inhibition of KRas-mediated phosphorylation of ERK (in-cell western); format: cell-based; details: Homo sapiens, NCI-H460, 3 h, 3 hours compound, phospho-ERK normalized to GAPDH
Procedure: (§1) Diluted compounds were then added in a final concentration of 0.5% DMSO. After 3 hours, 50 μL of 4.0% formaldehyde was added and the plates incubated at room temperature for 20 minutes. The plates were then dumped and permeabilized with 150 μL of ice cold 100% methanol for 10 minutes.
(§2) The amount of phospho-ERK was determined using an antibody specific for the phosphorylated form of ERK and compared to the amount of GAPDH. […] The plates were incubated overnight at 4° C. The plates were washed 3× with 150 uL PBS+0.1% Tween 20.
(§3) The plates were washed 3× with 150 uL PBS+0.1% Tween 20. Plates were imaged dry on a Li-COR Odyssey CLX plate reader.
(§4) The phospho-ERK (Thr202/Tyr204) signal was normalized to the GAPDH signal for each well and percent of DMSO control values were calculated. IC50 values were generated using a 4-parameter fit of the dose response curve.

[2] = test system: phospho-ERK in AsPC-1 (G12D) cells; test: as above; format: cell-based; details: Homo sapiens, ASPC1, 3 h, 3 hours compound, phospho-ERK normalized to GAPDH
Procedure: as §1, §2, §3, §4

[3] = test system: phospho-ERK in NCI-H727 (G12V) cells; test: as above; format: cell-based; details: Homo sapiens, NCI-H727, 3 h, 3 hours compound, phospho-ERK normalized to GAPDH
Procedure: as §1, §2, §3, §4

KRas G12R = KRas G12R (Homo sapiens, UniProt P01116, G12R); test: biochemical;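 further: TR-FRET displacement assay of compound binding to KRas, read after one hour at room temperature, potency from a four-parameter fit of percent-of-control values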
KRas G12R, sequence (P01116 1-169 isoform P01116-2 G12R): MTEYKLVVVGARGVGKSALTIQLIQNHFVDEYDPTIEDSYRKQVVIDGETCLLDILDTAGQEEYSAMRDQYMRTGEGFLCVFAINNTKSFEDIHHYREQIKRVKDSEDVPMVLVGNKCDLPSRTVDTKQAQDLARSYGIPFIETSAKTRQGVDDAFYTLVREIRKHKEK
Procedure: (§5) The ability of a compound to bind to KRas was measured using a TR-FRET displacement assay. […] After a 60-minute incubation at room temperature, the reaction was measured using a BMG LABTECH CLARIO star Plus via TR-FRET. […] The POC values were fit to a 4-parameter IC50 equation and the IC50 value reported.

KRas G12V = KRas G12V (Homo sapiens, UniProt P01116, G12V); test: biochemical;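 further: KRas binding measured by TR-FRET displacement at room temperature, IC50 fitted from percent of control values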
KRas G12V, sequence (P01116 1-169 isoform P01116-2 G12V): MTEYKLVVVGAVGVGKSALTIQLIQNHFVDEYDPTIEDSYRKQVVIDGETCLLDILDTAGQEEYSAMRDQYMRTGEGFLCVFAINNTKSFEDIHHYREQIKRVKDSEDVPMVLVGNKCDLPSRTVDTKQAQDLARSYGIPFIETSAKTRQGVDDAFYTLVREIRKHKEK
Procedure: as §5

KRas G12D = KRas G12D (Homo sapiens, UniProt P01116, G12D); test: biochemical;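 further: TR-FRET displacement binding assay on KRas, read after a one-hour incubation at room temperature, IC50 fitted from percent-of-control values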
KRas G12D, sequence (P01116 1-169 isoform P01116-2 G12D): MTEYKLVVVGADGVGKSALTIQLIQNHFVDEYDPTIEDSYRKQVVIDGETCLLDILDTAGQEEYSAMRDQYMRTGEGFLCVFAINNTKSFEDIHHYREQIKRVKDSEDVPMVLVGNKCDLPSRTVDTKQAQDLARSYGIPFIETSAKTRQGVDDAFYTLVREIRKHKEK
Procedure: as §5

pERK in PSN1 cells = test: Inhibition of KRas phosphorylation of ERK (Cisbio HTRF pERK assay); details: Homo sapiens, PSN1, 3 h, read-out: Inhibition (HTRF IC50) of KRas-mediated Phosphorylation of ERK, PSN1

Structure (SMILES) | IC50 (pERK in MKN1 cells) | IC50 [1] | IC50 [2] | IC50 [3] | IC50 (KRas G12R) | IC50 (KRas G12V) | IC50 (KRas G12D) | IC50 (pERK in PSN1 cells)
C#Cc1c(F)ccc2cc(O)cc(-c3ncc4c(N5CCOC[C@](C)(O)C5)nc(OC[C@@]56CCCN5C[C@H](F)C6)nc4c3F)c12 (single isomer, unassigned) [Example 386] | 44 nM | 299 nM | 1180 nM | 1020 nM | 6 nM | 5 nM | 7 nM | 2880 nM
Oc1cc(-c2ncc3c(N4CCC[C@]5(C4)C[C@H](O)C5)nc(OC[C@@]45CCCN4C[C@H](F)C5)nc3c2F)c2c(F)c(F)ccc2c1 (single isomer, unassigned) [Example 441] | 6 nM | 70 nM | 119 nM | 139 nM | ≤ 2 nM | ≤ 2 nM | 3 nM | 2880 nM
Oc1cc(-c2ncc3c(N4CCC[C@]5(C4)C[C@@H](O)C5)nc(OC[C@@]45CCCN4C[C@H](F)C5)nc3c2F)c2c(F)c(F)ccc2c1 (single isomer, unassigned) [Example 442] | 9 nM | 124 nM | 134 nM | 234 nM | ≤ 2 nM | ≤ 2 nM | ≤ 2 nM | 2850 nM
CCc1c(F)ccc2cc(O)cc(-c3ncc4c(NCc5n[nH]cc5C(N)=O)nc(OC[C@@]56CCCN5C[C@H](F)C6)nc4c3F)c12 [Example 162] | 187 nM | 6770 nM | 4530 nM | 4170 nM | 3 nM | ≤ 2 nM | 31 nM | ≥ 10000 nM
CCc1c(F)ccc2cc(O)cc(-c3ncc4c(NC56CC(CO)(C5)C6)nc(OC[C@@]56CCCN5C[C@H](F)C6)nc4c3F)c12 [Example 167, 5-ethyl-6-fluoro-4-(8-fluoro-2-(((2R,7aS)-2-fluorohexahydro-1H-pyrrolizin-7a-yl)methoxy)-4-((3-(hydroxymethyl)bicyclo[1.1.1]pentan-1-yl)amino)pyrido[4,3-d]pyrimidin-7-yl) naphthalen-2-ol] | 3 nM | 623 nM | 6760 nM | 1250 nM | ≤ 2 nM | ≤ 2 nM | 16 nM | ≥ 10000 nM
CCc1c(F)ccc2cc(O)cc(-c3ncc4c(NCCc5c[nH]nn5)nc(OC[C@@]56CCCN5C[C@H](F)C6)nc4c3F)c12 [Example 169, 4-(4-((2-(1H-1,2,3-triazol-4-yl)ethyl)amino)-8-fluoro-2-(((2R,7aS)-2-fluorohexahydro-1H-pyrrolizin-7a-yl)methoxy)pyrido[4,3-d]pyrimidin-7-yl)-5-ethyl-6-fluoronaphthalen-2-ol] | 100 nM | 931 nM | 2890 nM | 1810 nM | ≤ 2 nM | ≤ 2 nM | 4 nM | ≥ 10000 nM
CCc1c(F)ccc2cc(O)cc(-c3ncc4c(NCc5ccc6nonc6c5)nc(OC[C@@]56CCCN5C[C@H](F)C6)nc4c3F)c12 [Example 175, 4-(4-((benzo[c][1,2,5]oxadiazol-5-ylmethyl)amino)-8-fluoro-2-(((2R,7aS)-2-fluorohexahydro-1H-pyrrolizin-7a-yl)methoxy)pyrido[4,3-d]pyrimidin-7-yl)-5-ethyl-6-fluoronaphthalen-2-ol] | 39 nM | 675 nM | 1720 nM | 756 nM | ≤ 2 nM | ≤ 2 nM | 38 nM | ≥ 10000 nM
CCc1c(F)ccc2cc(O)cc(-c3ncc4c(N5C[C@H](O)C[C@@H](F)C5)nc(OC[C@@]56CCCN5C[C@H](F)C6)nc4c3F)c12 [Example 178] | 49 nM | 728 nM | 606 nM | 2110 nM | 14 nM | 7 nM | 18 nM | ≥ 10000 nM
CCc1c(F)ccc2cc(O)cc(-c3ncc4c(N5C[C@@H](C)C[C@@H](O)C5)nc(OC[C@@]56CCCN5C[C@H](F)C6)nc4c3F)c12 [Example 180] | 10 nM | 113 nM | 205 nM | 623 nM | 4 nM | ≤ 2 nM | 4 nM | 6900 nM
CCc1c(F)ccc2cc(O)cc(-c3ncc4c(N5CCC[C@@H](O)[C@H]5C)nc(OC[C@@]56CCCN5C[C@H](F)C6)nc4c3F)c12 [Example 181] | 139 nM | 584 nM | 1540 nM | 1610 nM | 10 nM | 17 nM | 29 nM | 6700 nM
CCc1c(F)ccc2cc(O)cc(-c3ncc4c(N5C[C@H](O)CC[C@H]5C)nc(OC[C@@]56CCCN5C[C@H](F)C6)nc4c3F)c12 [Example 182] | 5 nM | 157 nM | 547 nM | 355 nM |  |  |  | 6900 nM
CCc1c(F)ccc2cc(O)cc(-c3ncc4c(N5CCCC(O)(C(F)(F)F)C5)nc(OC[C@@]56CCCN5C[C@H](F)C6)nc4c3F)c12 (some centres unmarked) [Example 183] | 2 nM | 137 nM | 399 nM | 720 nM |  |  |  | 4230 nM
CCc1c(F)ccc2cc(O)cc(-c3ncc4c(N5CCC[C@@H](O)[C@@H]5C)nc(OC[C@@]56CCCN5C[C@H](F)C6)nc4c3F)c12 [Example 185] | 17 nM | 424 nM | 306 nM | 481 nM | 9 nM | 9 nM | 11 nM | 4840 nM
CCc1c(F)ccc2cc(O)cc(-c3ncc4c(N5C[C@H](O)CC[C@@H]5C)nc(OC[C@@]56CCCN5C[C@H](F)C6)nc4c3F)c12 [Example 186] | 108 nM | 592 nM | 1590 nM | 1060 nM |  |  |  | ≥ 10000 nM
CCc1c(F)ccc2cc(O)cc(-c3ncc4c(N5C[C@H](C)C[C@@H](O)C5)nc(OC[C@@]56CCCN5C[C@H](F)C6)nc4c3F)c12 [Example 187] | 38 nM | 133 nM | 470 nM | 550 nM | 6 nM | 5 nM | 12 nM | ≥ 10000 nM
CCc1c(F)ccc2cc(O)cc(-c3ncc4c(N5CC[C@H](C)[C@@H](O)C5)nc(OC[C@@]56CCCN5C[C@H](F)C6)nc4c3F)c12 [Example 188] | 77 nM | 478 nM | 2070 nM | 2140 nM | 23 nM | 19 nM | 48 nM | ≥ 10000 nM
CCc1c(F)ccc2cc(O)cc(-c3ncc4c(N5CC(O)CC(F)(F)C5)nc(OC[C@@]56CCCN5C[C@H](F)C6)nc4c3F)c12 (some centres unmarked) [Example 190] | 11 nM | 62 nM | 189 nM | 272 nM | ≤ 2 nM | ≤ 2 nM |  | 4990 nM
CCc1c(F)ccc2cc(O)cc(-c3ncc4c(N5CCCC(CO)C5)nc(OC[C@@]56CCCN5C[C@H](F)C6)nc4c3F)c12 (stereo partly drawn) [Example 306, 5-ethyl-6-fluoro-4-(8-fluoro-2-(((2R,7aS)-2-fluorohexahydro-1H-pyrrolizin-7a-yl)methoxy)-4-(3-(hydroxymethyl)piperidin-1-yl)pyrido[4,3-d]pyrimidin-7-yl)naphthalen-2-ol] | 57 nM | 306 nM | 405 nM | 461 nM |  |  |  | 6800 nM
